Results on twelve compounds are retold here after patent US6365591B1, “Isoxazolecarboxamide derivatives” (Recordati, S.A., Chemical and Pharmacueticals Company, priority 1999, dated 2002).

Structures are written as SMILES.

The target in experiment [1] is T1, human 5-HT1A-serotoninergic receptor (Homo sapiens, UniProt P08908).
T1 construct: expressed in transfected cells; host or cells: HeLa
T1 sequence (P08908 1-422): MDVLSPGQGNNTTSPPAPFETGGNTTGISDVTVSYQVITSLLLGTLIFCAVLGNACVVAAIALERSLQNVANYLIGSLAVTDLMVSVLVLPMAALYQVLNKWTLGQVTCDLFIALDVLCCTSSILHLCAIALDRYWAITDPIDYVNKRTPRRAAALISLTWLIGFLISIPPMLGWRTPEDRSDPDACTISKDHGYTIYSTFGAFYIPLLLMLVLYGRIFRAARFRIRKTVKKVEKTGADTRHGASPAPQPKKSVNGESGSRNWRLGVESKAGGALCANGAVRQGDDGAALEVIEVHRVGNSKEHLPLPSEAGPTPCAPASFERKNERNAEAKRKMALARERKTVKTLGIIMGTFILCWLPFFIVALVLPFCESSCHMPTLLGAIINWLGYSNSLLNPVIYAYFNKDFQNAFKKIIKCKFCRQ
Nature of the experiment: Radioligand binding ([3H]8-OH-DPAT) to cloned 5-HT1A receptor in HeLa cell membranes. The conditions noted are these: mean Ki, read-out: Affinity for 5-HT1A receptor, Ki. The source says: Data were expressed as mean Ki.

In experiment [2] the target is T2, recombinant α1b-adrenoceptor (Homo sapiens, UniProt P35368).
T2 sequence (P35368 1-520): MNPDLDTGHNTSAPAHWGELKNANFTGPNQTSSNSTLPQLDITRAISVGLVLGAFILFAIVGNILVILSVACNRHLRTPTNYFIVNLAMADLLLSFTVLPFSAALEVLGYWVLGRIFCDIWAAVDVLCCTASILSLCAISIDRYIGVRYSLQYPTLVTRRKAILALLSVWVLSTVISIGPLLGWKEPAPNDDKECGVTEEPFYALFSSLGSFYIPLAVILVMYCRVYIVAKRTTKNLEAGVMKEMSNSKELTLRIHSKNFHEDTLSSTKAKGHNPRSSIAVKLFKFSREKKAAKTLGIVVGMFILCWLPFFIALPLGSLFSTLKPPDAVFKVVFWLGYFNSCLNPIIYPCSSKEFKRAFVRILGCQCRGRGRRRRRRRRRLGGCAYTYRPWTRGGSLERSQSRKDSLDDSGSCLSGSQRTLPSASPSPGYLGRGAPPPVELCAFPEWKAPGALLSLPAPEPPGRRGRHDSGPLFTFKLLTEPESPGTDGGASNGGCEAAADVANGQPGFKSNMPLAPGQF
Nature of the experiment: biochemical.
Method: (§4) Determination of Affinity for Cloned α1 Adrenergic Receptors and 5-HT1A Serotoninergic Receptors by Radioligand Binding Assay
(§5) Determination of affinity for cloned subtypes of the α1-adrenoceptor was performed in membranes from cells transfected by electroporation with DNA expressing the genes encoding each α1-adrenoceptor subtype.
(§6) Non-specific binding was determined in the presence of 10 μM phentolamine. Incubation was stopped by addition of ice-cold Tris buffer and rapid filtration through 0.2%-polyethyleneimine pretreated Schleicher & Schuell GF52 filters.

Experiment [3] addresses T3, recombinant α1d-adrenoceptor (UniProt P25100).
T3 sequence (P25100 1-572): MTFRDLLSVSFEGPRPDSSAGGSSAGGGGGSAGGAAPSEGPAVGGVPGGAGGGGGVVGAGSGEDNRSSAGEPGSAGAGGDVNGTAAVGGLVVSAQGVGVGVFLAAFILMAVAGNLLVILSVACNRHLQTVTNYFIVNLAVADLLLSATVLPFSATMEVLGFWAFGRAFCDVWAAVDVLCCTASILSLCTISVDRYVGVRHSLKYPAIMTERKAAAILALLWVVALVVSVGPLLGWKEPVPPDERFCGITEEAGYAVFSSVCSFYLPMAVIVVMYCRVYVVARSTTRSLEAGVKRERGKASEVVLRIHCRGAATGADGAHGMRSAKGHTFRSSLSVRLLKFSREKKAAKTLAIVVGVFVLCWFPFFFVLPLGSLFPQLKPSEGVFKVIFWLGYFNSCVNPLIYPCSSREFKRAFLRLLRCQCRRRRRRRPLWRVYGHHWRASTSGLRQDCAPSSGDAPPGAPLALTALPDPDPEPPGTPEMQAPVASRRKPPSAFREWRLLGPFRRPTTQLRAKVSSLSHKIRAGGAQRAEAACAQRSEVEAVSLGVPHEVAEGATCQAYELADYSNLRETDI
The conditions noted are these: [3H]prazosin, membranes of transfected cells; mean Ki.
Method: as §4, §5, §6

Experiment [4] deals with T4, recombinant α1a-adrenoceptor (UniProt P35348).
T4 sequence (P35348 1-466): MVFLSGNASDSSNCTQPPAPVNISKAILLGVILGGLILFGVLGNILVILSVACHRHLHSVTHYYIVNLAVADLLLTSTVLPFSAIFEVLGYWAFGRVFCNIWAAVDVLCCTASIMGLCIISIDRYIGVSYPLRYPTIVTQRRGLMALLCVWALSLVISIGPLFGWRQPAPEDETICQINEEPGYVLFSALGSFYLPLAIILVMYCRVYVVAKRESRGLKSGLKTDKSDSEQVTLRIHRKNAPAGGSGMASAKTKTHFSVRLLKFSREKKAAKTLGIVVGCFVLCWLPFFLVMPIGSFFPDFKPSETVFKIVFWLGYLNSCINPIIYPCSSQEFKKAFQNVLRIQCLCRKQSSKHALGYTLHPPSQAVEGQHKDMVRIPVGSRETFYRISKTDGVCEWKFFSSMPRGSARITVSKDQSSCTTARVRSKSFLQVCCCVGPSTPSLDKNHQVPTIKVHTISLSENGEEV
The conditions noted are these: read-out: Affinity for recombinant α1a-adrenoceptor subtype, Ki; [3H]prazosin, membranes of transfected cells; mean Ki.
Method: as §4, §5, §6

The next experiment deals with diastolic blood pressure. The experiment can be described thus: Diastolic blood pressure in anaesthetised dogs, i.v. administration. It is filed as in vivo, dog. As to the method:
(§1) Effects on Urethral Contractions (Induced by Noradrenaline Injection and Hypogastric-nerve Stimulation) and on Blood Pressure in Dogs After Intravenous Administration
(§2) The experiments were performed according to the method of Imagawa et al. (J. Pharmacol. Methods, 22:103-111, 1989) with substantial modifications, as follows: adult male beagle dogs, weighing 8-10 kg, were anaesthetised with pentobarbital sodium (30 mg/kg i.v. and 2 mg/kg/h i.v.), intubated and spontaneously ventilated with room air. In order to monitor systemic blood pressure (BP), a polyethylene (PE) catheter was introduced into the aortic arch through the left femoral artery. A collateral of the left femoral vein was cannulated for infusion of anaesthetic, and the right femoral vein was cannulated for administration of the compounds. […] Prostatic urethral pressure was monitored with a Mikro-tip catheter (5F) introduced into the bladder via the external urethral meatus, and withdrawn until the pressure transducer was positioned in the prostatic region of the urethra. […]
(§3) After a stabilizing period following the surgical procedure (30 minutes), in which arterial and prostatic urethral pressure were continuously monitored as basal values, i.a. administration of NA and stimulation of the hypogastric nerve were alternately made at intervals of 10 minutes. […]

In experiment [5] the test system is prostatic urethral pressure (noradrenaline-induced). Nature of the experiment: Urethral contractions induced by intraarterial noradrenaline in anaesthetised dogs, i.v. administration. It is filed as in vivo, dog. The procedure: as §1, §2, §3
Experiment [6] has as its system prostatic urethral pressure (hypogastric-nerve stimulation). Nature of the experiment: Urethral contractions induced by hypogastric-nerve stimulation in anaesthetised dogs, i.v. administration. It counts as in vivo, dog. As to the method:
as §1, §2, §3

As for `Cc1onc(-c2ccccc2Cl)c1C(=O)NCCCN1CCN(c2ccc(F)cc2OCC(F)(F)F)CC1` [Example 11, 3-(2-Chlorophenyl)-N-[3-[4-[4-fluoro-2-(2,2,2-trifluoroethoxy)phenyl]-1-piperazinyl]propyl]-5-methylisoxazole-4-carboxamide], the values for the Ki in experiment [1] and in experiment [2] were 242 nM and 31.2 nM, respectively.

On to `Cc1onc(-c2ccccc2)c1C(=O)NCCCN1CCN(c2cc(Cl)ccc2O)CC1` [Example 2, N-{3-[4-(5-Chloro-2-hydroxyphenyl)-1-piperazinyl]propyl}-5-methyl-3-phenylisoxazole-4-carboxamide], for which the Ki in experiment [1] is 49.5 nM; in experiment [2] it was 9.97 nM.

For `Cc1onc(-c2c(F)cccc2Cl)c1C(=O)NCCCN1CCN(c2ccc(F)cc2OCC(F)(F)F)CC1` [Example 9, 3-(2-Chloro-6-fluorophenyl)-N-[3-[4-[4-fluoro-2-(2,2,2-trifluoroethoxy)phenyl]-1-piperazinyl]-propyl]-5-methylisoxazole-4-carboxamide], the Ki in experiment [1] is 342 nM; in experiment [2], 24.1 nM.

Regarding `Cc1onc(-c2c(F)cccc2Cl)c1C(=O)NCCCN1CCN(c2ccccc2OCC(F)(F)F)CC1` [Example 12, 3-(2-Chloro-6-fluorophenyl)-5-methyl-N-[3-[4-[2-(2,2,2-trifluoroethoxy)phenyl]1-piperazi-nyl]propyl]isoxazole-4-carboxamide], the inhibitory constant (Ki) in experiment [1] was 30 nM; in experiment [2] it was 21.4 nM.

Take `Cc1onc(-c2ccccc2)c1C(=O)NCCCN1CCN(c2cc(Cl)ccc2OS(=O)(=O)C(F)(F)F)CC1` [Example 7, N-{3-[4-(5-Chloro-2-trifluoromethanesulphonyloxy)-1-piperazinyl]propyl}-5-methyl-3-phenylisoxazole-4-carboxamide]: the figures for the Ki in experiment [1] and in experiment [2] were no less than 1000 nM and 7.49 nM, respectively.

Regarding `Cc1onc(-c2ccccc2)c1C(=O)NCCCN1CCN(c2ccccc2OCC(F)(F)F)CC1` [Example 3, 5-Methyl-3-phenyl-N-{3-[4-[2-(2,2,2-trifluoroethoxy)phenyl]-1-piperazinyl]propyl}isoxazole-4-carboxamide], the inhibition constant Ki is 11.7 nM in experiment [1] and 36.2 nM in experiment [2].

Regarding `COc1ccc(OCC(F)(F)F)cc1N1CCN(CCCNC(=O)c2c(-c3ccccc3)noc2C)CC1` [Example 4, N-{3-[4-[2-Methoxy-5-(2,2,2-trifluoroethoxy)phenyl]-1-piperazinyl]propyl}-5-methyl-3-phenylisoxazole-4-carboxamide], the inhibition constant (Ki) in experiment [2] came out at 570 nM.

As for `O=C(NCCCN1CCN(c2ccc(F)cc2OCC(F)(F)F)CC1)c1conc1-c1ccc(F)cc1` [Example 8, 3-(4-Fluorophenyl)-N-[3-[4-[4-fluoro-2-(2,2,2-trifluoroethoxy)phenyl]-1-piperazinyl]propyl]-isoxazole-4-carboxamide], the values for the inhibitory constant (Ki) in experiment [1] and in experiment [2] were 202 nM and 28.1 nM, respectively. Besides, in experiment [3], the “Affinity for recombinant α1d-adrenoceptor subtype, Ki” value is recorded as 25/81.

As for `Cc1onc(-c2c(Cl)cccc2Cl)c1C(=O)NCCCN1CCN(c2ccc(F)cc2OCC(F)(F)F)CC1` [Example 10, 3-(2,6-Dichlorophenyl)-N-[3-[4-[4-fluoro-2-(2,2,2-trifluoroethoxy)phenyl]-1-piperazinyl]pro-pyl]-5-methylisoxazole-4-carboxamide], the Ki in experiment [1] stood at 170 nM; in experiment [2] it was 24.2 nM.

For the compound `Cc1onc(-c2ccccc2)c1C(=O)NCCCN1CCN(c2cc(F)ccc2OCC(F)(F)F)CC1` [Example 5, N-{3-[4-[5-Fluoro-2-(2,2,2-trifluoroethoxy)phenyl]-1-piperazinyl]propyl}-5-methyl-3-phenylisoxazole-4-carboxamide], the Ki in experiment [1] came to 192 nM; in experiment [2] it was 11.5 nM; in experiment [4], 0.05 nM.

`COc1ccc(Cl)cc1N1CCN(CCCNC(=O)c2c(-c3ccccc3)noc2C)CC1` [Example 1, N-{3-[4-(5-Chloro-2-methoxyphenyl)-1-piperazinyl]propyl}-5-methyl-3-phenylisoxazole-4-carboxamide]: the inhibitory constant (Ki) was 436 nM in experiment [1], 23.6 nM in experiment [2] and 0.77 nM in experiment [4]. In addition, in the experiment with diastolic blood pressure, the “DBP ED25: dose inducing a 25% decrease in diastolic blood pressure” value came to 0.3545 mg/kg.

Regarding `Cc1onc(-c2ccccc2)c1C(=O)NCCCN1CCN(c2ccc(F)cc2OCC(F)(F)F)CC1` [Example 6, N-{3-[4-[4-Fluoro-2-(2,2,2-trifluoroethoxy)phenyl]-1-piperazinyl]propyl}-5-methyl-3-phenylisoxazole-4-carboxamide], the figures for the inhibition constant (Ki) in experiment [1], in experiment [2] and in experiment [4] were 317 nM, 69.5 nM and 0.35 nM, respectively. In experiment [5], the “UP ID50 NA: dose inhibiting by 50% the urethral contractions induced by noradrenaline” value was determined as 0.0024 mg/kg. Further, in the experiment with diastolic blood pressure, the “DBP ED25: dose inducing a 25% decrease in diastolic blood pressure” value was determined as 0.1967 mg/kg. Further, in experiment [6], the “UP ID50 HYP: dose inhibiting by 50% the urethral contractions induced by hypogastric-nerve stimulation” value is 0.0045 mg/kg.
